Measured values reported in patent US12479830B2, “Homopiperazinyl and homopiperidinyl quinazolin-4(3H)-one derivatives having multimodal activity against pain” (ESTEVE PHARMACEUTICALS, S.A., priority 2019, dated 2025).

Legend:
Human σ1 receptor = target: T1, Human σ1 receptor (Homo sapiens, UniProt Q99720); experiment: Human σ1 receptor radioligand assay ([3H](+)-pentazocine binding); conditions: binding to the σ1 receptor, expressed as Ki class; + also covers inhibition between 1% and 50%
T1 construct: expressed in transfected cells; host or cells: HEK-293
T1 sequence (Q99720 whole entry): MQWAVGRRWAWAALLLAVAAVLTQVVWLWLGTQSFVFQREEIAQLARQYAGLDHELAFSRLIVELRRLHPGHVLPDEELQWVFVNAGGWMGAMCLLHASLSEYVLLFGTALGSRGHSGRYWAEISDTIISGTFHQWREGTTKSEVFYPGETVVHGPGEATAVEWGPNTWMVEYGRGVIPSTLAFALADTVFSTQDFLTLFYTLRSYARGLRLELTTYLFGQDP
How it was run: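 Ki was derived from five test concentrations, or % inhibition was measured at a single 1 or 10 μM dose, against 5 nM [3H](+)-pentazocine. Incubation was 120 min at 37° C in 50 mM Tris-HCl pH 8 with 7 μg HEK-293 membranes, and 10 μM haloperidol set non-specific binding. Bound radioactivity was counted after filtration.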

[1] = target: Human α2δ-1 subunit of Cav2.2 calcium channel (Homo sapiens, UniProt P54289); experiment: Human α2δ-1 subunit of Cav2.2 calcium channel assay ([3H]-gabapentin binding); conditions: binding to the α2δ-1 subunit of voltage-gated calcium channels, expressed as Ki class; + also covers inhibition between 1% and 50%
Human α2δ-1 subunit of Cav2.2 calcium channel, sequence (P54289 25-1103): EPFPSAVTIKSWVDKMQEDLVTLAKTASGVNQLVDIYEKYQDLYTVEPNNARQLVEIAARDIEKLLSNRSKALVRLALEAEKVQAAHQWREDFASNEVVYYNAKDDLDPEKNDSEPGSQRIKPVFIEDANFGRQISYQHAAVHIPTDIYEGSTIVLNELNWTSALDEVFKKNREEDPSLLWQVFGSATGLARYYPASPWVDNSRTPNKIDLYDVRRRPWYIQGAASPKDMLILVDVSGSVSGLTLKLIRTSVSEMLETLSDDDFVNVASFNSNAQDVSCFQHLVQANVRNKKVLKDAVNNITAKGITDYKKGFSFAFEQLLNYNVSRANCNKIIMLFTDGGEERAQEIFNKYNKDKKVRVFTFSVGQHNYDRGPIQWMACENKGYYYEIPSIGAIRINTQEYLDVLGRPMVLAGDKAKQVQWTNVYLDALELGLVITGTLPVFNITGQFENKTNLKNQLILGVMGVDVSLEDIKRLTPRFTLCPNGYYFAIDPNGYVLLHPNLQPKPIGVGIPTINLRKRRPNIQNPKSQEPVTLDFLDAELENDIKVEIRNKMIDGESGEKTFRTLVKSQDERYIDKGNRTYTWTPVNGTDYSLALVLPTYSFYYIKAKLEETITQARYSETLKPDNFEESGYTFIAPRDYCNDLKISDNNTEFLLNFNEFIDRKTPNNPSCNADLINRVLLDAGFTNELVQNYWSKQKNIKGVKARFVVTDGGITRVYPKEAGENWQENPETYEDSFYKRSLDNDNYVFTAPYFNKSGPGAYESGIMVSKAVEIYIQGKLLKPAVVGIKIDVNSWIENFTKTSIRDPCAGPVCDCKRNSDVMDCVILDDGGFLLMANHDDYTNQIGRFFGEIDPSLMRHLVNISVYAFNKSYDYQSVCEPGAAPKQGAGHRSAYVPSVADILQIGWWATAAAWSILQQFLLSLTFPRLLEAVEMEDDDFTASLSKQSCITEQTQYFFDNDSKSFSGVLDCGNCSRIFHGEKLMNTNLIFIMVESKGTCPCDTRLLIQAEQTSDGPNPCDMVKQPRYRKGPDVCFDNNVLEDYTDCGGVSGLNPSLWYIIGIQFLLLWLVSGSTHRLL
How it was run: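 Affinity (Ki, five concentrations) or % inhibition at 1 or 10 μM, from displacement of 15 nM [3H]-gabapentin on human α2δ-1 membranes. Incubation 60 min, 27° C., Hepes-KOH 10 mM pH 7.4; 10 μM pregabalin defined non-specific binding; bound radioactivity counted after GF/C filtration.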

SMILES | Ki (Human σ1 receptor) [nM] | Ki [1] [nM]
CCC[C@@H](c1nc2cc(F)c(Cl)cc2c(=O)n1CC)N1CCN(C)C[C@@H](C)C1 [Example 138, 6-chloro-2-((S)-1-((R)-4,6-dimethyl-1,4-diazepan-1-yl)butyl)-3-ethyl-7-fluoroquinazolin-4 (3H)-one] | 500 to 1000 | > 5000
CCC[C@H](c1nc2ccc(Br)cc2c(=O)n1CC)N1CCCN[C@H](C)C1 [Example 139, 6-Bromo-3-ethyl-2-((R)-1-((R)-3-methyl-1,4-diazepan-1-yl)butyl)quinazolin-4(3H)-one] | 500 to 1000 | < 500
CCC[C@@H](c1nc2ccc(Br)cc2c(=O)n1CC)N1CCCN[C@@H](C)C1 [Example 140, 6-bromo-3-ethyl-2-((S)-1-((S)-3-methyl-1,4-diazepan-1-yl)butyl)quinazolin-4(3H)-one] | > 1000 | > 5000
CCC[C@@H](c1nc2ccc(Br)cc2c(=O)n1CC)N1CCCN[C@H](C)C1 [Example 141, 6-bromo-3-ethyl-2-((S)-1-((R)-3-methyl-1,4-diazepan-1-yl)butyl)quinazolin-4(3H)-one] | 500 to 1000 | > 5000
CCC[C@H](c1nc2ccc(Br)cc2c(=O)n1CC)N1CCCN[C@@H](C)C1 [Example 142, 6-bromo-3-ethyl-2-((R)-1-((S)-3-methyl-1,4-diazepan-1-yl)butyl)quinazolin-4(3H)-one] | > 1000 | < 500
CCC[C@H](c1nc2ccc(F)cc2c(=O)n1CC)N1CCCN[C@H](C)C1 [Example 143, 3-Ethyl-6-fluoro-2-((R)-1-((R)-3-methyl-1,4-diazepan-1-yl)butyl)quinazolin-4(3H)-one] | < 500 | < 500
CCC[C@@H](c1nc2ccc(F)cc2c(=O)n1CC)N1CCCN[C@@H](C)C1 [Example 144, 3-ethyl-6-fluoro-2-((S)-1-((S)-3-methyl-1,4-diazepan-1-yl)butyl)quinazolin-4(3H)-one] | > 1000 | > 5000
CCC[C@H](c1nc2ccc(F)cc2c(=O)n1CC)N1CCCN[C@@H](C)C1 [Example 145, 3-ethyl-6-fluoro-2-((R)-1-((S)-3-methyl-1,4-diazepan-1-yl)butyl)quinazolin-4(3H)-one] | > 1000 | < 500
CCC[C@@H](c1nc2ccc(F)cc2c(=O)n1CC)N1CCCN[C@H](C)C1 [Example 146] | > 1000 | > 5000
CCC[C@H](c1nc2ccc(Cl)cc2c(=O)n1C)N1CCCN[C@H](C)C1 [Example 147, 6-Chloro-3-methyl-2-((R)-1-((R)-3-methyl-1,4-diazepan-1-yl)butyl)quinazolin-4(3H)-one] | < 500 | < 500
CCC[C@H](c1nc2ccc(Cl)cc2c(=O)n1C)N1CCCN[C@@H](C)C1 [Example 148, 6-chloro-3-methyl-2-((R)-1-((S)-3-methyl-1,4-diazepan-1-yl)butyl)quinazolin-4(3H)-one] | > 1000 | < 500
CCC[C@@H](c1nc2ccc(Cl)cc2c(=O)n1C)N1CCCN[C@@H](C)C1 [Example 149, 6-chloro-3-methyl-2-((S)-1-((S)-3-methyl-1,4-diazepan-1-yl)butyl)quinazolin-4(3H)-one] | < 500 | > 5000
CCC[C@@H](c1nc2ccc(Cl)cc2c(=O)n1C)N1CCCN[C@H](C)C1 [Example 150, 6-chloro-3-methyl-2-((S)-1-((R)-3-methyl-1,4-diazepan-1-yl)butyl)quinazolin-4(3H)-one] | 500 to 1000 | > 5000
CCC[C@H](c1nc2ccc(Br)cc2c(=O)n1CC)N1CCCN(C)CC1 [Example 151, (R)-6-Bromo-3-ethyl-2-(1-(4-methyl-1,4-diazepan-1-yl)butyl)quinazolin-4(3H)-one] | < 500 | < 500
CCC[C@@H](c1nc2ccc(Br)cc2c(=O)n1CC)N1CCCN(C)CC1 [Example 152, (S)-6-bromo-3-ethyl-2-(1-(4-methyl-1,4-diazepan-1-yl)butyl)quinazolin-4(3H)-one] | 500 to 1000 | > 5000
